Assays:
[1] = target: T1, recombinant human HDAC-1 enzyme (rHDAC-1) (Homo sapiens, UniProt Q13547); test: Histone deacetylase inhibition, recombinant human HDAC-1; assay type: biochemical; details: cloned recombinant human HDAC-1, Baculovirus insect cell expression; read-out: rHDAC-1 IC50
T1 construct: made in house; host or cells: Baculovirus insect cell expression system
Experimental: (§1) The reaction was stopped by adding acetic acid (0.04 M, final concentration) and HCl (250 mM, final concentration). The mixture was extracted with ethyl acetate and the released [^3H]-acetic acid was quantified by scintillation counting. For inhibition studies, the enzyme was preincubated with compounds at 4° C. for 30 minutes prior to initiation of the enzymatic assay. IC50 values for HDAC enzyme inhibitors were determined by performing dose response curves with individual compounds and determining the concentration of inhibitor producing fifty percent of the maximal inhibition.

[2] = test system: histone deacetylase enzyme in nuclear extracts from H446 cells (pooled HDACs); test: Histone deacetylase inhibition, H446 nuclear extracts (pooled HDACs); assay type: biochemical, human; details: for IC50: H446 nuclear extract, [3H]-acetylated histone substrate; for pooled HDACs percent inhibition: percent inhibition at 20 μM (footnote)
Experimental: HDAC inhibitors were screened against histone deacetylase enzyme in nuclear extracts prepared from the human small cell lung cancer cell line H446 (ATTC HTB-171) and against a cloned recombinant human HDAC-1 enzyme expressed and purified from a Baculovirus insect cell expression system.
as §1, with “For deacetylase assays, 20,000 cpm of the [^3H]-metabolically labeled acetylated histone substrate (M. Yoshida et al., J. Biol. Chem. 265(28): 17174-17179 (1990)) was incubated with 30 μg of H446 nuclear extract or an equivalent amount of the cloned recombinant hHDAC-1 for 10 minutes at 37° C. The reaction” for “The reaction”

T1 sequence (Q13547 whole entry): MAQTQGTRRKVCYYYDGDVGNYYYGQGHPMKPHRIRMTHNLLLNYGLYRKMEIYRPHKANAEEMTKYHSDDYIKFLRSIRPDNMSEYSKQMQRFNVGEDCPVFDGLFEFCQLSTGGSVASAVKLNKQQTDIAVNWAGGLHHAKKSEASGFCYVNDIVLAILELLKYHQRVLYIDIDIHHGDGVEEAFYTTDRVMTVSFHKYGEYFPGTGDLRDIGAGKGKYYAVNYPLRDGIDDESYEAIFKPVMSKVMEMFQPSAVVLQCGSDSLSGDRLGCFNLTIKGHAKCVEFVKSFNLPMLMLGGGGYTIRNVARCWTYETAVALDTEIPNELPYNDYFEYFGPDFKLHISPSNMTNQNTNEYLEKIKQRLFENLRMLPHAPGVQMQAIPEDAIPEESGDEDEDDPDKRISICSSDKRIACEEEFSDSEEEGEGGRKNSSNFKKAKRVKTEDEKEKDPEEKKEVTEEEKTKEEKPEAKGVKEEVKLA

SMILES	IC50 [1] [nM]	IC50 [2] [nM]	pooled HDACs percent inhibition [2] [%]	pooled HDACs percent inhibition @ 1 μM [2] [%@ 1 μM]	pooled HDACs percent inhibition @ 5 μM ([2]; @ 5 μM) [%@ 5 μM]
Cn1c(C(=O)CCCCCCC(=O)NO)cc2ccccc21 [Compound 103, N-Hydroxy-7-[2-((N-methyl)indolyl)carbonyl]heptanamide]	50	100			
Nc1ccccc1NC(=O)CCCCCCC(=O)c1cc2ccccc2s1 [Compound 164, N-(2-Aminophenyl)-7-[(2-benzo[b]thiophene)carbonyl]heptanamide]	2300		18		
COc1ccc(C(=O)CCCCCCC(=O)Nc2ccccc2N)cc1 [Compound 53b, N-(2-Aminophenyl)-7-(p-anisoyl)heptanamide]	1000		0		
CC(=O)SCC(=O)CCCCCCC(=O)c1ccccc1 [Compound 159a, 1-Acetylthio-2,9-dioxo-9-phenyl-nonane]	100	50			
CSc1ncccc1C(=O)CCCCCCC(=O)NO [Compound 105b]	20			40	
CSCC(=O)CCCCCCC(=O)c1ccccc1 [Compound 159b, 1-Methylthio-2,9-dioxo-9-phenyl-nonane]	500				14
O=C(CCCCCCC(=O)c1ccc(N2CCOCC2)cc1)NO [Compound 138i, N-Hydroxy-7-[4-(N-morpholinyl)benzoyl]heptanamide]	33	100			
COc1ccc2cc(C(=O)CCCCCCC(=O)NO)ccc2c1 [Compound 105a, N-Hydroxy-7-[2-(6-methoxy)naphthoyl]heptanamide]	10			83	
O=C(CCCCCC/C(=N\O)c1cc2ccccc2s1)NO [Compound 99, N-Hydroxy-8-(Z)-oximino-8-(2-benzo[b]thiophene)octanamide]	8	35			
Nc1ccccc1NC(=O)CCCCCCC(=O)c1ccc2ccccc2c1 [Compound 63, N-(2-Aminophenyl)-7-(2-naphthoyl)heptanamide]	2200	> 20000			
O=C(CS)CCCCCCC(=O)c1ccccc1 [Compound 159e, 1-Mercapto-2,9-dioxo-9-phenyl-nonane]	50	50			
Cn1c(C(=O)CCCCCCC(=O)CS)cc2ccccc21 [Compound 166, 1-Mercapto-2,9-dioxo-9-(2-N-methylindolyl)-nonane]	420	50			
COc1ccc(C(OC)C(C)(C)CCCCC(=O)NO)cc1 (centres unmarked) [Compound 28, N-Hydroxy-6,6-dimethyl-7-methoxy-7-(4-methoxyphenyl)heptanamide]	100	4000			
O=C(NCCCCCC(=O)c1ccc(-c2ccccc2)cc1)Nc1ccccc1O [Compound 93, N-(2-Hydroxyphenyl)-N′-[5-((4-biphenyl)carbonyl)pentyl]urea]	6400		0		
Nc1ccccc1NC(=O)CCCCCn1nnc2ccccc2c1=O [Compound 239b]	8100		14		
O=C(CS)CCCCCCC(=O)c1cc2ccccc2s1 [Compound 163, 1-Mercapto-2,9-dioxo-9-(2-benzo[b]thiophene)-nonane]	10	40			
Nc1ccccc1NC(=O)CCCCCN1C(=O)c2ccccc2C1=O [Compound 243a, N-(2-Aminophenyl)-6-(N-phthaloyl)hexanamide]	1600		6		
O=C(CCCCCCC(=O)c1ccc(-c2ccccc2)cc1)Nc1ccccc1O [Compound 74, N-(2-Hydroxyphenyl)-7-[(4-biphenyl)carbonyl]heptanamide]	7800		0		
COc1ccc(NC(=O)CCCCCCC(=O)c2ccc(-c3ccccc3)cc2)c(N)c1 [Compound 81, N-(4-(3-Amino)anisole)-7-[(4-biphenyl)carbonyl]heptanamide]	25000		27		
O=C(CCCCCCC(=O)c1cccc2ccccc12)NO [Compound 52f, N-hydroxy-7-(1-naphthoyl)heptanamide]	10	550			
COc1ccc(/C(CCCCCCC(=O)NO)=N/O)cc1 [Compound 96, N-Hydroxy-8-(E)-oximino-8-(4-methoxyphenyl)octanamide]	35	100			
O=C(CCCCCNS(=O)(=O)c1ccccc1)NO [Compound 47, N-Hydroxy-6-(benzenesulfonylamino)hexanamide]	500	4500			

SMILES	IC50 [1] [nM]	IC50 [2] [nM]	pooled HDACs percent inhibition [2] [%]	pooled HDACs percent inhibition @ 1 μM [2] [%@ 1 μM]	pooled HDACs percent inhibition @ 5 μM ([2]; @ 5 μM) [%@ 5 μM]
Nc1ccccc1NC(=O)CCCCCCC(=O)c1ccc(-c2ccsc2)cc1 [Compound 117, N-(2-Aminophenyl)-7-[4-(3-thiophenyl)benzoyl]heptanamide]	9000		0		
Nc1ccccc1CNC(=O)CCCCCCC(=O)c1ccc(-c2ccccc2)cc1 [Compound 75, N-(2-Aminobenzyl)-7-[(4-biphenyl)carbonyl]heptanamide]	8400		0		
O=C(CCCCCCC(=O)c1ccc(C(F)(F)F)cc1)NO [Compound 52c, N-hydroxy-7-(4-trifluoromethylbenzoyl)heptanamide]	60	550			
O=C(CCCCCCC(=O)c1ccc(Oc2ccccc2)cc1)NO [Compound 104, N-Hydroxy-7-(4-phenoxybenzoyl)heptanamide]	160			61	
Nc1ccccc1NC(=O)CCCCCCC(=O)c1ccc(-c2cccnc2)cc1 [Compound 127, N-(2-Aminophenyl)-7-[4-(3-pyridyl)benzoyl]heptanamide]	10300		0		
O=C(CCCCCCC(=O)c1ccc(Nc2ccccc2)cc1)NO [Compound 138a, N-Hydroxy-7-[4-(N-phenyl)benzoyl]heptanamide]	4			83	
O=C(CCCCCn1cnc2ccccc2c1=O)NO [Compound 238a, N-Hydroxy-6-[3-(4-Oxo-4H-quinazolinyl)]hexanamide]	50			0	
Nc1ccccc1NC(=O)CCCCCCC(=O)c1cccc2ccccc12 [Compound 53f, N-(2-Aminophenyl)-7-(1-naphthoyl)heptanamide]	2000		3		
COc1ccc(C(C/C=C/C=C/C(=O)NO)OC)cc1 (centres unmarked) [Compound 6, N-Hydroxy-7-methoxy-7-(4-methoxyphenyl)-2,4-heptadienamide]	250	3000			
Nc1ccccc1NC(=O)CCCCCCC(=O)c1ccc(Br)cc1 [Compound 114, N-(2-Aminophenyl)-7-(4-bromobenzoyl)heptanamide]	6300	> 20000			
COc1ccc(C(OC)C(C)(C)/C=C/C=C/C(=O)NO)cc1 (centres unmarked) [Compound 26, N-Hydroxy-6,6-dimethyl-7-methoxy-7-(4-methoxyphenyl)-2,4-heptadienamide]	1000	5000			
O=C(CCCCCCC(=NO)c1ccco1)NO [Compound 51i, N-Hydroxy-8-oximino-8-(2-furanyl)octanamide]	100	900			
O=C(CCCCCCC(=O)c1ccccc1)CSC(=O)c1ccccc1 [Compound 159f, 1-Benzoylthio-2,9-dioxo-9-phenyl-nonane]	700	350			
O=C(CCCCCCC(=NO)c1cc2ccccc2o1)NO (mixture of isomers) [Compound 98, N-Hydroxy-8-(E)-oximino-8-(2-benzofuryl)octanamide]	30	40			
CN(c1ccccc1)c1ccc(C(=O)CCCCCCC(=O)NO)cc1 [Compound 138b, N-Hydroxy-7-[4-(N-methyl-N-phenyl)benzoyl]heptanamide]	8	49			
Nc1ccccc1NC(=O)NCCCCCCC(=O)c1ccccc1 [Compound 89, N-(2-Aminophenyl)-N′-[6-(benzoyl)hexyl]urea]	16300		0		
COC(C/C=C/C=C/C(=O)Nc1ccccc1N)c1ccccc1 (centres unmarked) [Compound 19, N-(2-Aminophenyl)-7-methoxy-7-phenyl-2,4-heptadienamide]	< 20000	> 100000			
O=C(CCCCCC(=O)c1cc2ccccc2[nH]1)NO [Compound 112, N-Hydroxy-6-[(2-indolyl)carbonyl]hexanamide]	39	250			
O=C(CCCCCCC(=O)c1ccoc1)NO [Compound 52j, N-hydroxy-7-(3-furanoyl)heptanamide]	450	3000			
CC(=O)SCC(=O)CCCCCCC(=O)c1cc2ccccc2n1C [Compound 165, 1-Acetylthio-2,9-dioxo-9-(2-(N-methyl)indolyl)-nonane]	90	40			
O=C(CCCCCCC(=O)c1cccnc1)NO [Compound 141a1, N-Hydroxy-7-[(3-pyridyl)carbonyl]heptanamide]	60			22	

— US7288567B2, “Inhibitors of histone deacetylase” (Methylgene Inc., priority 2000, dated 2007)
